Data from patent US7160684B2, “Methods of selecting compounds for modulation of bladder function” (Wyeth, priority 2000, dated 2007).

Experiments:
[1] = test system: isolated rat bladder smooth muscle cell; test: Current clamp recording of resting membrane potential, rat cells; format: cell-based; conditions: 10 μM retigabine
Text: Rat detrusor cells are isolated in a manner previously described for guinea-pig detrusor (Sheldon J H, Norton N W and Argentieri T M (1997) Inhibition of guinea pig detrusor contraction by NS-1619 is associated with activation of BKCa and inhibition of calcium currents. J Pharmacol Exp Thera 283(3): 1193–1200). Male Sprague-Dawley rats (Charles River, Wilmington, Mass.; 200–400 grams) are euthanized by CO2 inhalation and exsanguination. Their urinary bladders are rapidly removed and placed in 37° C. physiological solution with the following composition (mM): Na glutamate (80.0), NaCl (54.7), KCl (5.0), NaHCO3 (25.0), MgCl2.2H2O (2.5), D-glucose (11.8) and CaCl2 (0.2) gassed with O2—CO2, 95%/5% for a final pH of 7.4. The dome of the bladder is isolated from the trigone region and the mucosa is removed. This tissue is then cut into 2–3 mm wide strips and placed into fresh buffer for 1 hour. Tissues are then transferred into 10 ml of an isolation buffer containing the above composition plus collagenase type VIII (1.0 mg/ml) and pronase (0.25 mg/ml). After 10 minutes the isolation buffer is replaced with fresh isolation buffer for an additional 10 min. The tissue is then washed 3 times in fresh collagenase and pronase free solution and stored at room temperature until studied. Cells for study are prepared by triturating 1–2 pieces of detrusor tissue in 2 ml of fresh isolation buffer for 5 minutes with a polished Pasteur pipette, (tip diameter ˜1.5 mm) attached to a modified Harvard Respirator pump (Harvard Apparatus, Southnatic, Mass.) at a rate of 20×/min. with an approximate volume of 5 ml. Cells are then placed on a microscope stage in a temperature regulated tissue bath at 32.5° C. and continually superfused with PSS.
(§1) Single cell recordings are performed with a List-Medical EPC-7 patch clamp amplifier (Adams & List Assoc., Westbury, N.Y.). Pipette electrodes had tip resistances of 2–4 MΩ and are filled with the following composition (mM): KCl (126.0), MgCl2.6H2O (4.5), ATP Mg salt (4.0), GTP tris salt (0.3), creatine PO4 (14.0), D-glucose (9.0), EGTA (9.0), HEPES (9.0). The pH is adjusted to 7.4 with KOH. Signals are acquired (3 kHz high frequency cut-off, 12 bit resolution) using a 586-based personal computer.
Cell resting membrane potential (RMP) is measured in current clamp using the above mentioned instrumentation and pipette solutions. For these experiments nystatin is also added to the pipette solution (100 μg/ml) to allow recording through utilization of the perforated patch technique (Korn, et al, 1991). […] After this time, various antagonists (linopirdine, XE-991) are added to the perfusate and RMP is recorded for an additional 5 minutes. […]

[2] = test system: cultured human bladder smooth muscle cells; test: Current clamp recording of resting membrane potential, human cells; format: cell-based; conditions: resting membrane potential −8.0±2.8 mV before retigabine; n=3
Method: as §1
Cell resting membrane potential (RMP) is measured in current clamp using the above mentioned instrumentation and pipette solutions. For these experiments nystatin is also added to the pipette solution (100 μg/ml) to allow recording through utilization of the perforated patch technique (Korn, et al, 1991). After stable access is achieved, RMP is recorded for a 5 minute control period followed by 5 minute of drug application (0.3 and 1.0 μM). After this time, various antagonists (linopirdine, XE-991) are added to the perfusate and RMP is recorded for an additional 5 minutes. […]
Rat bladder strips were isolated and prepared as previously described (Wojdan, A., Freeden, C., Woods, M., Oshiro, G., Spinelli, W. et al., J Pharmacol ExpTherap 289:1410–1418 (1999)). […] Message for KCNQ subunits was probed using quantitative rtPCR on an ABI PRISM 7700 Sequence Detection System (TAQMAN). […]

SMILES: CCOC(=O)Nc1ccc(NCc2ccc(F)cc2)cc1N [retigabine, N-[2-amino-4-(4-fluorobenzylamino)-phenyl]carbamic acid ethyl ester]
- hyperpolarization of the cell ([1]; RMP −40 mV before exposure, single tracing FIG. 3a): approximately 10 mV
- resting membrane potential (RMP) after exposure ([1]; control RMP −29.0±4.5 mV, n=3): −43.0±3.5 mV
- hyperpolarization of cells [2]: 11±1.1 mV
